From US20230263817A1, “HIGH DOSE NICOTINAMIDE ADENINE DINUCLEOTIDE (NAD) PRECURSOR REGIMENS FOR REDUCTION OF INFLAMMATION IN HUMAN PATIENTS WITH PREEXISTING INFLAMMATION” (University of Washington, priority 2021, published 2023)

Key:
healthy PBMCs = assay: Seahorse Mito Stress Test (OCR) of healthy PBMCs after 4-hour in vitro treatment; format: cell-based, human; conditions: for PBMC maximal OCR: 4-hour increasing concentrations of recombinant human IL1B or IL18
Description: (§1) PBMC and Monocyte isolation. 30-60 ml of fasting blood was collected into EDTA-containing Vacutainers (BD Mfr #364606). Blood then was diluted (1:1) with RPMI medium (Corning; Cat #17-105-CV) and applied to Histopaque gradient medium (Sigma-Aldrich; Cat #10771) using SepMate-50 (STEMCELL Technologies), and centrifuged at 1200 g for 10 minutes. Top layer contained the enriched peripheral blood mononuclear cells (PBMCs) which were collected and followed by centrifugation at 300 g for 10 minutes. The pellet was resuspended with ACK lysis buffer (Gibco; Cat. A1049201) and incubated at room temperature for 5 minutes to remove residual red blood cells. Next, the enriched PBMCs were washed twice with RPMI medium. All PBMC samples were subjected to the baseline Seahorse Mito Stress Test. When available, the remaining cells were used for cytokine mRNA quantitative PCR and in vitro assays. For monocyte isolation, a magnetic bead-based negative-selection monocyte isolation kit (Miltenyi Biotec, 130-096-537) was used per the manufacturer's instructions. Briefly, antibody-conjugated magnetic bead solution was added to isolated PBMCs resuspended in RPMI containing 0.5% BSA and incubated for 20 minutes at 4° C., followed by magnetic column binding and elution. The procedure was repeated once to improve the purity of monocytes. The monocytes were washed once with RPMI prior to subsequent experiments.
Seahorse Mito Stress Test. Oxygen consumption rate (OCR) of freshly isolated PBMCs was assessed using a Seahorse XFe24 analyzer (Agilent Technologies). Briefly, purified PBMCs were resuspended in Seahorse base medium (Agilent Technologies, supplemented with 1 mM pyruvate, 2 mM glutamine, and 10 mM glucose, pH 7.4), and added 10^6 cells/well at equal volume of 500 μL in a Seahorse 24-well plate. The cells were maintained in a non-CO2 incubator and allowed to settle for 30 minutes at 37° C. Next, the plate was centrifuged at 40 g for 10 minutes at room temperature without application of the brake to help cells attach to the bottom of the plate. Drugs used in the assay: 5 μM oligomycin A (Sigma-Aldrich; Cat. 75351), 3 μM Trifluoromethoxy carbonylcyanide phenylhydrazone (FCCP) (Sigma-Aldrich; Cat. C2920), 1 μM Rotenone (Sigma-Aldrich; Cat. […]), 1 μM Antimycin A (Sigma-Aldrich; Cat. […]), 0.5 mM TMPD (Sigma-Aldrich; Cat. T7394) and 10 mM Ascorbate (Sigma-Aldrich; Cat. 95209).
(§2) PBMC and Monocyte Culture. Freshly isolated PBMCs or Monocytes from healthy or HF subjects were resuspended with RPMI medium plus 10% heat inactivated FBS. PBMCs (10^6 cells/well) were seeded in Seahorse 24-well plates and incubated at 37° C. in CO2 incubator with various proinflammatory triggers (Vehicle, MitoDAMP, LPS) and compounds (NR, MCC 950, MitoTempo, or LMT-28). After 4 hours incubation, the plate was centrifuged at 40 g for 10 minutes at room temperature without application of the brake to help cells attach to the bottom of the plate. The cells were washed twice and then brought up to 500 μL using Seahorse base medium (Agilent Technologies, supplemented with 1 mM pyruvate, 2 mM glutamine, and 10 mM glucose, pH 7.4).

[1] = tested on: monocytes isolated from healthy subjects; assay: Maximal respiration of isolated monocytes after 4-hour IL6 treatment; format: cell-based; conditions: 4-hour 1 ng/mL recombinant human IL6
Description: as §1, with “Briefly, antibody-conjugated magnetic bead solution was added to isolated PBMCs resuspended in RPMI containing 0.5% BSA and incubated for 20 minutes at 4° C., followed by magnetic column binding and elution. The procedure was repeated once to improve the purity of monocytes. The monocytes were washed once with RPMI prior to subsequent experiments.” left out
Seahorse Mito Stress Test. Oxygen consumption rate (OCR) of freshly isolated PBMCs was assessed using a Seahorse XFe24 analyzer (Agilent Technologies). […]

Complex I = conditions: healthy PBMC, 4-hour IL6 (1 ng/mL) vs vehicle
Description: Complex I in vitro assay. This assay was performed using Abcam Complex I Enzyme Activity Microplate Assay Kit (ab109721), per the manufacturer's protocol. Briefly, following a 4-hour treatment with vehicle or IL6, 5×10^6 PBMCs were washed with PBS and lysed by detergent for 30 minutes on ice, followed by centrifugation at 16,000 g for 20 minutes at 4° C. Supernatant was taken for protein concentration determination. 12.5 μg of total protein in a final volume of 200 μL was incubated in microplates precoated with anti-Complex I antibody for 3 hours at room temperature. Post-washing step, NADH and dye were added, and optical density (OD) was serially measured at 450 nm over 1 hour. The slope of the curve within the linear range was recorded as Complex I activity.

[2] = tested on: NLRP3 and pro-inflammatory cytokine (IL1β, IL6, IL18, TNFα) mRNA in healthy PBMCs; assay: RT-qPCR of NLRP3 and pro-inflammatory cytokine mRNA in healthy PBMCs treated in vitro; format: cell-based, human; conditions: 4-hour MitoDAMP with 0.5 mM MitoTempo relative to MitoDAMP alone
Description: as §2
IL6 ELISA. Isolated PBMCs (4×10^6 cells per sample) from healthy or HF participants were resuspended in RPMI medium containing 10% heat-inactivated FBS and treated with various proinflammatory triggers (Vehicle, MitoDAMP, LPS) and compounds (NR, MCC 950, MitoTempo, or LMT-28) to final PBMC concentrations of 10×10^6 cells per mL. See below for detailed descriptions of the reagents. The samples were incubated in Eppendorf tubes at 37° C. in a 5% CO2 incubator with caps open for times designated in the brief description of drawings. The cultured PBMC samples were centrifuged at 8,000 RPM at room temperature. The supernatant was used for ELISA per the manufacture protocol using R&D Systems human IL6 kit (Cat #DY206-05). The cell pellets were stored in −80° C.
RNA Isolation and Quantitative PCR analysis. Total RNA was isolated from frozen PBMC pellets using Trizol (Invitrogen) per the manufacturer's instructions, and cDNA was synthesized using iScript™ Reverse Transcription Supermix (Bio-rad) per the manufacturer's instructions. Real-time PCR was performed in the Corbett rotor gene 6000 real-time PCR machine using iQ™ SYBR® Green Supermix (Bio-rad) and expression levels of the indicated genes were calculated using the ΔΔCt method.

recombinant IL6: human recombinant IL6, purchased from Gibco
OCR through Complex IV (TMPD and ascorbate as electron donors) (healthy PBMCs; healthy PBMC, 4-hour IL6 (1 ng/mL) vs vehicle): no difference | maximal OCR (healthy PBMCs; healthy PBMCs, 4-hour increasing concentrations of human recombinant IL6): dose-dependent decline | lowest IL6 concentration with significant reduction of maximal OCR (healthy PBMCs; healthy PBMCs, 4-hour treatment): 0.1 ng/mL | maximal OCR of monocytes [1]: decreased | Complex I enzymatic activity (Complex I): reduced

IL18: human recombinant IL18, purchased from R&D Systems
PBMC maximal OCR (healthy PBMCs; healthy PBMCs): did not result in a significant decrease

CC1(C)CC(NC(=O)C[P+](c2ccccc2)(c2ccccc2)c2ccccc2)CC(C)(C)N1[O] [MitoTempo]
maximal OCR (healthy PBMCs; healthy PBMC, 4-hour MitoDAMP with 0.5 mM MitoTempo vs MitoDAMP alone): did not change | cytokine gene expressions [2]: markedly attenuated

recombinant IL1β: human recombinant IL1β, purchased from R&D Systems
PBMC maximal OCR (healthy PBMCs; healthy PBMCs): did not result in a significant decrease

CC(C)(O)c1coc(S(=O)(=O)NC(=O)Nc2c3c(cc4c2CCC4)CCC3)c1 [MCC950]
maximal OCR (healthy PBMCs; healthy PBMC, 4-hour MitoDAMP with 1 μM MCC950): marginally improved
